# Experimental data published in patent US20220175795A1, “USE OF FULVESTRANT FOR THE THERAPEUTIC CARE OF CENTRAL CORE DISEASE” (UNIVERSITÉ GRENOBLE ALPES, priority 2019, published 2022).
# “Also recorded” adds a separate entry of the source.
# What was measured:
# [1] = system: RyR1^Rec mice (model of central core disease); assay: Animal grip test (gripping time on inverted grid) in inducible RyR1 KO mice; type: in vivo
# Experimental: For this study, an inducible and non-lethal model of KO mice for RyR1 developed in the laboratory was used. In these mice, exons 9 to 11 of the RYR1 gene are flanked by LoxP sites on both alleles (RYR1 fl/fl).
# KO was induced by intraperitoneal injections of tamoxifen (Sigma) eight weeks after birth, at 1 mg/day for five days. It is important to note that all animals have received these injections, whether they have the HSA-Cre allele or not.
# Exclusively in animals having the HSA-Cre allele, tamoxifen (TAM) causes the translocation of the Cre recombinase to the nucleus, thus allowing the recombination of the LoxP sites and the deletion of exons 9-11 from the RYR1 gene (FIG. 1). In order to improve the understanding, the mice in which the recombination cannot be made will be referred to as the RyR1^Ctrl mice in the following document. The recombinant mice after intraperitoneal administration of TAM will be referred to as RyR1^Rec mice.
# For the treatment of animals, fulvestrant was prepared from a commercial solution of Faslodex 250 mg (AstraZeneca). This solution was diluted in physiological serum and 0.27 mg of fulvestrant was injected to each mouse (weight of 20 g) in 50 μl volume. The injections were carried out intramuscularly in the quadriceps once per week.
# In order to evaluate the muscular strength of the animals, the mice were placed on a grid which was then turned upside down. The duration during which the mice remain gripped at the grid has been timed to a limit of 300 seconds. This measurement was carried out in a weekly manner over the entire population of mice of the study.
# The strength of the animals is followed by a grip test (gripping test) once a week, just before the injections.
# [2] = system: immortalized human MELA cells; assay: Calcium imaging (Fluo-4, KCl 140 mM stimulation) on cells of a central core disease patient; type: cell-based; details: 7 days in differentiation medium, not statistically significant
# Source text: The MELA cells are immortalized human cells derived from a biopsy of a patient suffering from central core disease, including in particular a quantitative defect of RyR1 and a calcium release defect (Rendu et al., 2013). These cells were immortalised by the team of Vincent Mouly (Institute of Myology, Paris).
# (§1) The medium has been renewed 4 days after placing in the differentiation medium.
# (§2) For human cells, the shape of the cells not allowing them to be distinguished individually in an accurate manner, the measurements were made on a single region of interest per well corresponding to the total surface covered by the myotubes. 4 to 6 wells were measured for each repetition of the experiment.
# (§3) Fulvestrant was tested on human muscle cells having or not a calcium release defect (human cells CTRL or MELA), by incubation of 7 days in differentiation medium.
# human control cells CTRL = assay: Calcium imaging (Fluo-4, KCl 140 mM stimulation) on human control muscle cells; type: cell-based; details: 7 days in differentiation medium
# Experimental: The CTRL cells are immortalized human cells from a biopsy of a healthy subject having no calcium release abnormality.
# as §1, §2, §3
# [3] = system: recombinant RyR1 cells (RyR1-Rec murine myotubes); details: 72 h, 0.1 µM
# Experimental: The satellite cells were isolated from the skeletal muscles of the lower limbs of the neonate mice RyR1^Ctrl according to the procedure described in Marty et al, 2000.
# The cells were seeded in 96 well plates (75,000 cells/well) previously coated with laminin. The cells were first cultured in the proliferation medium composed of Ham's F-10 Nutrient Mix (Life Technologies), 20% fetal calf serum (Life Technologies), 2% Ultroser G (PALL) and 2% Penicillin-Streptomycin (Life Technologies).
# In order to induce floxed RyR1 gene recombination, the cells thus have been transduced 12 hours after seeding with adenoviruses allowing the expression of Cre recombinase, AdV-Cre (Utah University), to a multiplicity of infections (multiplicity of infection, or MOI) of 64. […]
# The films were analyzed by the Fiji (Schindelin et al., 2012) and Prim (GraphPad) softwares.
# For murine cells, the fluorescence measurements were performed on regions of interest each corresponding to a myotube, with several tens of myotubes measured for each repetition of the experiment.
# The intensity of the calcium release was evaluated in response to a stimulation by KCl 140 mM (mimicking a depolarization at ˜0 mV). […]
smiles,measurement,setting,value
C[C@]12CC[C@@H]3c4ccc(O)cc4C[C@@H](CCCCCCCCC[S+]([O-])CCCC(F)(F)C(F)(F)F)[C@H]3[C@@H]1CC[C@@H]2O (some centres unmarked) [fulvestrant],strength (gripping time) vs untreated mice,"[1]; female RyR1^Rec mice, intramuscular injection once a week, grip test weekly (limit 300 seconds)",very sharp improvement; also recorded: significantly improved
same,strength over the entire duration of the treatment,"[1]; mice with induced central core disease, 75 days of treatment",did not lose strength
same,effect on calcium release,[2]; fulvestrant 100 nM,tends to increase calcium release; also recorded: tendency to improve the calcium release
same,effect on calcium release,[2]; fulvestrant 250 nM,tends to increase the release of calcium
same,effect on calcium release,human control cells CTRL; fulvestrant 100 nM,has no effect; also recorded: does not have an effect
same,effect on calcium release,human control cells CTRL; fulvestrant 250 nM,has no effect; also recorded: does not have any effect
same,increase of the calcium release peak vs untreated cells,[3],28%
same,magnitude of the calcium release peak (Fluo-4 fluorescence),[3],0.40+/−0.04
